Test results published in patent US11771679B2, “Composition containing hesperetin and synergistic hypoglycemic application thereof” (ZHENGZHOU FRUIT RESEARCH INSTITUTE, CHINESE ACADEMY OF …, priority 2021, dated 2023).

Biological target: T1, α-glucosidase (Saccharomyces cerevisiae, UniProt P53341)
T1 construct: purchased Sigma
Assay: α-glucosidase inhibition test (pNPG substrate, OD 405 nm); CI calculated with CompuSyn (Chou-Talalay)
Type: biochemical
Conditions: for Inhibition rate: single compound
Source text: [drawing 3] • α-glucosidase (coming from Saccharomyces cerevisiae, Sigma); • 4-nitrophenyl-α-D-glucopyranoside (pNPG, TOKYO Chemica Industry Co., LTD); • acarbose (Acarbose, TOKYO Chemica Industry Co., LTD); • hesperetin, galangin, and formononetin (BEIJING Solarbio Technology Co., LTD); • Millipore Simplicity water purification system (Millipore, France); • sodium phosphate salt buffer solution (pH 6.8, 0.1 mol L-1); and • microplate reader TECAN infinite M200 PRO (Teacan Group Ltd., Swizerland).
an α-glucosidase solution with a concentration being 0.25 U/mL and a substrate p-nitrophenyl-α-D-glucopyranoside (pNPG) solution with a concentration being 5 mmol/mL were prepared by using a PBS buffer solution (0.1 mol/L pH 6.8).
100 μL of sample solution was added to each hole, then 40 μL of α-glucosidase (0.25 U/mL) was added, reacted for 15 min at 37° C., and then 60 μL of substrate p-nitrophenyl-α-D-glucopyranoside (5 mmol/mL) was added; and after placed at 37° C. to react for 15 min, a microplate reader measured at a wave length of 405 nm.
CI values are calculated according to CompuSyn software to evaluate synergistic effect among drugs.

T1 sequence (P53341 whole entry): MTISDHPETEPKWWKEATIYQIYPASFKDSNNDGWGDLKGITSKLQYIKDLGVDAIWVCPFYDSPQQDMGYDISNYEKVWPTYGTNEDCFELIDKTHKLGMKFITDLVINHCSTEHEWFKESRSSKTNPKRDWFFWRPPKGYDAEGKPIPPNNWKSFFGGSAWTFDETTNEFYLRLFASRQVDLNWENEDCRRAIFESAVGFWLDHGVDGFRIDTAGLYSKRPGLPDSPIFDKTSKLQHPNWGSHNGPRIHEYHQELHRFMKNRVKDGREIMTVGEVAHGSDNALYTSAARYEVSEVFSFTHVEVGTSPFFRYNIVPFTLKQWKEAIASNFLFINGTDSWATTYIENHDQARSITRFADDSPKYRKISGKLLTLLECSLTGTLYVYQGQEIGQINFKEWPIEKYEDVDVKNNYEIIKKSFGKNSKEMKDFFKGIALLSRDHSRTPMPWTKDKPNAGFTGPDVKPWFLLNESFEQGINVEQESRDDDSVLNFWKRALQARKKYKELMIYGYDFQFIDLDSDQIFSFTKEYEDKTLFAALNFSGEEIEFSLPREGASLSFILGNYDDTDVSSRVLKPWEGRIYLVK

Compound: O=c1c(O)c(-c2ccccc2)oc2cc(O)cc(O)c12 [Galangin]
- inhibition at 100 µg/mL (read-out: Inhibition rate): 56.3 ± 4.5%
- inhibition at 150 µg/mL (read-out: Inhibition rate): 84.4 ± 7.5%

Compound: O=C(CCc1ccc(O)cc1)c1c(O)cc(O)cc1O [Phloretin]
- inhibition at 8 µg/mL (read-out: Inhibition rate): 46.3 ± 2.7%

Compound: O=c1cc(-c2ccccc2)oc2cc(O)c(O)c(O)c12 [Baicalein]
- inhibition at 10 µg/mL (read-out: Inhibition rate): 38.8 ± 3.3%

Compound: COc1ccc(-c2coc3cc(O)ccc3c2=O)cc1 [Formononetin]
- inhibition at 20 µg/mL (read-out: Inhibition rate): 60.1 ± 5.3%
- inhibition at 30 µg/mL (read-out: Inhibition rate): 65.2 ± 4.3%

Compound: COc1c(-c2ccc(O)c(O)c2)oc2cc(O)cc(O)c2c1=O [3-O-methyl quercetin]
- inhibition at 2 µg/mL (read-out: Inhibition rate): 46.2 ± 1.2%

Compound: O=c1cc(-c2ccc(O)cc2)oc2cc(O)cc(O)c12 [Apigenin]
- inhibition at 6 µg/mL (read-out: Inhibition rate): 56.1 ± 4.4%

Compound: C[C@H]1O[C@H](O[C@H]2[C@H](O)[C@@H](O)[C@@H](O[C@H]3[C@H](O)[C@@H](O)C(O)O[C@@H]3CO)O[C@@H]2CO)[C@H](O)[C@@H](O)[C@@H]1N[C@H]1C=C(CO)[C@@H](O)[C@H](O)[C@H]1O (stereo partly shown) [acarbose]
- inhibition at 350 µg/mL (read-out: Inhibition rate): 46.2 ± 3.5%

Compound: O=c1c(O)c(-c2ccc(O)c(O)c2)oc2cc(O)ccc12 [Fisetin]
- inhibition at 6 µg/mL (read-out: Inhibition rate): 46.5 ± 2.3%

Compound: Chrysin
- Inhibition rate (100 μg/mL): 51.2 ± 5.5%

Compound: O=C1c2c(O)cc(O)cc2OC(c2ccc(O)cc2O)C1O (stereo not shown) [Dihydromorin]
- inhibition at 15 µg/mL (read-out: Inhibition rate): 25.7 ± 4.7%

Compound: COc1c(-c2ccc(O)c(O)c2)oc2cc(O[C@@H]3OC(C)[C@@H](O)C(O)C3O)cc(O)c2c1=O (stereo partly shown) [Vincetoxicoside]
- inhibition at 12 µg/mL (read-out: Inhibition rate): 48.7 ± 2.1%

Compound: Oc1cc(O)c2cc(O)c(-c3ccc(O)c(O)c3)[o+]c2c1 [Cyanidin]
- inhibition at 0.7 µg/mL (read-out: Inhibition rate): 47.5 ± 1.4%

Compound: COc1ccc(C2CC(=O)c3c(O)cc(O)cc3O2)cc1O (stereo not shown) [Hesperetin]
- inhibition at 30 µg/mL (read-out: Inhibition rate): 45.2 ± 3.2%
- inhibition at 50 µg/mL (read-out: Inhibition rate): 63.4 ± 4.2%

Compound: O=C1C[C@@H](c2ccc(O)cc2)Oc2cc(O)cc(O)c21 [Naringenin]
- inhibition at 25 µg/mL (read-out: Inhibition rate): 50.5 ± 4.3%

Compound: O=c1c(-c2ccc(O)cc2)coc2cc(O)ccc12 [Daidzein]
- inhibition at 8 µg/mL (read-out: Inhibition rate): 44.5 ± 2.5%

Compound: Vitexin
- Inhibition rate (10 μg/mL): 29.2 ± 1.4%

Compound: O=C(/C=C/c1ccc(O)cc1)c1ccc(O)cc1O [Isoliquiritigenin]
- inhibition at 4 µg/mL (read-out: Inhibition rate): 35.2 ± 2.5%

Compound: COc1cc(O)c2c(=O)cc(-c3ccc(O)cc3)oc2c1 [Genkwanin]
- inhibition at 35 µg/mL (read-out: Inhibition rate): 70.1 ± 5.5%

Compound: COc1ccc(-c2coc3cc(O)cc(O)c3c2=O)cc1 [Biochanin A]
- inhibition at 0.7 µg/mL (read-out: Inhibition rate): 38.5 ± 2.1%

Compound: COc1ccc(-c2coc3cc(O)ccc3c2=O)cc1O [Calycosin]
- inhibition at 6 µg/mL (read-out: Inhibition rate): 56.6 ± 4.3%

Compound: Oc1cc(O)c2cc(O)c(-c3cc(O)c(O)c(O)c3)[o+]c2c1 [Delphinidin]
- inhibition at 1 µg/mL (read-out: Inhibition rate): 50.2 ± 4.3%

Compound: O=c1c(O)c(-c2ccc(O)cc2O)oc2cc(O)cc(O)c12 [Morin]
- inhibition at 1 µg/mL (read-out: Inhibition rate): 41.2 ± 2.7%

Compound: O=c1c(O)c(-c2cc(O)c(O)c(O)c2)oc2cc(O)cc(O)c12 [Myricetin]
- inhibition at 1 µg/mL (read-out: Inhibition rate): 41.2 ± 1.5%

Compound: O=c1cc(-c2ccc(O)c(O)c2)oc2cc(O)cc(O)c12 [Luteolin]
- inhibition at 1 µg/mL (read-out: Inhibition rate): 45.5 ± 2.7%

Compound: COc1ccc(-c2oc3cc(O)cc(O)c3c(=O)c2O)cc1 [Kaempferide]
- inhibition at 5 µg/mL (read-out: Inhibition rate): 30.8 ± 1.3%
